Reference: US20140005163A1 (NOVARTIS AG, priority 2010, published 2014)

Tests used:
[1] = target: T1, PI3K delta (Homo sapiens, UniProt O00329); assay: PI3K delta kinase assay (Kinase-Glo luminescence); assay type: biochemical
T1 construct: for the full-length p110-d subunit are generated and fused by overlapping PCR; p85(iSH2) fusion partner (see partner chain) (N); His tag (C); made in house; host or cells: baculovirus; Tn5 (Trichoplusia ni) or TiniPro insect cells
Outline: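 Construct BV-1060, p85 iSH2–linker–full-length p110δ, His-tagged, at 10 nM, with 1 μM ATP and 10 μg/mL phosphatidylinositol in pH 7.5 Tris, 3 mM MgCl2, 50 mM NaCl, 0.05% CHAPS. Run 60 min at room temperature; remaining ATP read by Kinase-Glo luminescence; IC50 from 4-parameter logistic fit of 8 concentrations.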

[2] = target: T2, mTOR (Homo sapiens, UniProt P42345); assay: Biochemical assay for m-TOR by TR-FRET; conditions: 8 μM ATP, 400 nM GFP-4EBP1, 0.5 nM mTOR
T2 construct: purchased Invitrogen Corporation (Carlsbad/CA, USA) PV4753
Outline: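 TR-FRET detection of pThr46 on GFP-4EBP1 (400 nM final) using Tb3+-labelled antibody (0.5 nM), added with EDTA to stop reactions. Reactions ran at rt with 0.5 nM mTOR and 8 μM ATP (final) in HEPES pH 7.5 buffer containing 10 mM MnCl2.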

[3] = target: T3, PI3K beta (Homo sapiens, UniProt P42338); assay: PI3K beta kinase assay (Kinase-Glo luminescence); assay type: biochemical
T3 construct: for the full-length p110-b subunit are generated and fused by overlapping PCR; p85(iSH2) fusion partner (see partner chain) (N); His tag (C); made in house; host or cells: baculovirus; Tn5 (Trichoplusia ni) or TiniPro insect cells
Outline: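 Residual ATP after a 60 min room-temperature reaction is quantified by Kinase-Glo luminescence. Enzyme: 25 nM BV-949 (p85 iSH2–linker–full-length p110β); substrates 1 μM ATP, 10 μg/mL PI; buffer Tris pH 7.5, MgCl2, NaCl, CHAPS, DTT. Eight concentrations per compound, four-parameter logistic IC50.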

[4] = target: T4, PI3K alpha (Homo sapiens, UniProt P42336); assay: PI3K alpha kinase assay (Kinase-Glo luminescence); assay type: biochemical
T4 construct: p85(iSH2) fusion partner (see partner chain) (N); His tag (C); made in house; host or cells: baculovirus; Tn5 (Trichoplusia ni) or TiniPro insect cells
Outline: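 PI3K alpha at 10 nM with 1 μM ATP and 10 μg/mL phosphatidylinositol in 10 mM TRIS pH 7.5, 3 mM MgCl2, 50 mM NaCl, 0.05% CHAPS, 1 mM DTT, 60 min at room temperature. Remaining ATP read by Kinase-Glo luminescence. IC50 by 4-parameter fit over 8 concentrations.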

T2 sequence (P42345 1360-2549 limits assumed): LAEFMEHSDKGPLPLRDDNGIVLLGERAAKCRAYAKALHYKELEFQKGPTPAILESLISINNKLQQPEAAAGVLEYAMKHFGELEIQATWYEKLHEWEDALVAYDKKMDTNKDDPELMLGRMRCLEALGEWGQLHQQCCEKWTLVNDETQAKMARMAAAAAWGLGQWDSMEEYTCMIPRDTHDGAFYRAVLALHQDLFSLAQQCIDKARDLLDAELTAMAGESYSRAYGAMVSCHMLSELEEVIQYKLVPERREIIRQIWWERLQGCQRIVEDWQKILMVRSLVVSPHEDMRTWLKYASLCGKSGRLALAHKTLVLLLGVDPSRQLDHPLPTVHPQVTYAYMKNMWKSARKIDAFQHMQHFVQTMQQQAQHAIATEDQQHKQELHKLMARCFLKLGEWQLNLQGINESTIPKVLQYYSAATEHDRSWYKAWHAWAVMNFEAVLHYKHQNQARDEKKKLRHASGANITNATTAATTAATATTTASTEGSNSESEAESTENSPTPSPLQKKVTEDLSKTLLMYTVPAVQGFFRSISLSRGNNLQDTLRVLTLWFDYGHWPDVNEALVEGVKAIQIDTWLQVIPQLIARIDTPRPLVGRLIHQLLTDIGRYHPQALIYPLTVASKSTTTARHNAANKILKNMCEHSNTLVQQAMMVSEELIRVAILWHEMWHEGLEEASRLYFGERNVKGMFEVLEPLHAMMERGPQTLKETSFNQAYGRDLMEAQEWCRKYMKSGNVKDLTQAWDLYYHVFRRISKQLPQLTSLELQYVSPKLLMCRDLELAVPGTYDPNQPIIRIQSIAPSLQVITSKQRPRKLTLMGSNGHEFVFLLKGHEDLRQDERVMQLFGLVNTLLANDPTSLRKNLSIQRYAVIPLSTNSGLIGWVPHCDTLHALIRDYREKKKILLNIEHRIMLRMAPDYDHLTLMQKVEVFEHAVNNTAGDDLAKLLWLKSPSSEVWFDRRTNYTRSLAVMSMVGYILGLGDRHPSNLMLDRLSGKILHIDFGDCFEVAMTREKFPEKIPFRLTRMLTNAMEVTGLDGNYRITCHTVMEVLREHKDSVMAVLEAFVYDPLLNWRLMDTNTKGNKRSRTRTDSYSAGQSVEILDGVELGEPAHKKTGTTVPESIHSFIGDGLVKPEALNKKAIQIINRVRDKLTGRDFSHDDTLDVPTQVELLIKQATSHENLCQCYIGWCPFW
T3 sequence (P42338 with tags, fused parts or gaps limits assumed): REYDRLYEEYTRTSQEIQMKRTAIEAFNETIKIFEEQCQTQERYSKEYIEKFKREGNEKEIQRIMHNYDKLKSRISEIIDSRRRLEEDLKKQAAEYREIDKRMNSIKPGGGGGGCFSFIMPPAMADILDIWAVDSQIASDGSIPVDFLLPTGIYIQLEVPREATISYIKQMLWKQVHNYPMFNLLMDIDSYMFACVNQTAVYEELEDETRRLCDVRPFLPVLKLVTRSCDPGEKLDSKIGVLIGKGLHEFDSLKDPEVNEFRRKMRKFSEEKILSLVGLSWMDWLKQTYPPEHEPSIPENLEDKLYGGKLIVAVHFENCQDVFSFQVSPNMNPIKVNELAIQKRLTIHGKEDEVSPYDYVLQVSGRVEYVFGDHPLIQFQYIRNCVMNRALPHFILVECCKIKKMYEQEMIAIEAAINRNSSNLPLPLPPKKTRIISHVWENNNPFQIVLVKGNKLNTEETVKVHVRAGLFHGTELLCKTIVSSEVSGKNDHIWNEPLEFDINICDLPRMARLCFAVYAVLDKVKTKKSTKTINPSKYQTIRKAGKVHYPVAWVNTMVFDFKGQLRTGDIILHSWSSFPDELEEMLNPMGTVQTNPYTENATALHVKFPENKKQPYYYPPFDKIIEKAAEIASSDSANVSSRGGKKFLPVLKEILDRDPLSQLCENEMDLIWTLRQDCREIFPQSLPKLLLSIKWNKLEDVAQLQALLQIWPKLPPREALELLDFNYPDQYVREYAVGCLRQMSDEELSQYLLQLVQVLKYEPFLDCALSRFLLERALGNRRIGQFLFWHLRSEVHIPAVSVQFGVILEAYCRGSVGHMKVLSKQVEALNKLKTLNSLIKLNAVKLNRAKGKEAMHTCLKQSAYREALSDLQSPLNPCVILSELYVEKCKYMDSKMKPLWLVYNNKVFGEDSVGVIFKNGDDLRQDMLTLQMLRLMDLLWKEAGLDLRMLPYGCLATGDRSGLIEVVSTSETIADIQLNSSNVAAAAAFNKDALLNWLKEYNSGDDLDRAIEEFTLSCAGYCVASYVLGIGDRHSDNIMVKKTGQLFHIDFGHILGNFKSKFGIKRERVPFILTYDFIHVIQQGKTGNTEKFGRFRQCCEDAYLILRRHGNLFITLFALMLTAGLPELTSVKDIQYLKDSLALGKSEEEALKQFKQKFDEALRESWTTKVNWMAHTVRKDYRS
T1 sequence (O00329 with tags, fused parts or gaps limits assumed): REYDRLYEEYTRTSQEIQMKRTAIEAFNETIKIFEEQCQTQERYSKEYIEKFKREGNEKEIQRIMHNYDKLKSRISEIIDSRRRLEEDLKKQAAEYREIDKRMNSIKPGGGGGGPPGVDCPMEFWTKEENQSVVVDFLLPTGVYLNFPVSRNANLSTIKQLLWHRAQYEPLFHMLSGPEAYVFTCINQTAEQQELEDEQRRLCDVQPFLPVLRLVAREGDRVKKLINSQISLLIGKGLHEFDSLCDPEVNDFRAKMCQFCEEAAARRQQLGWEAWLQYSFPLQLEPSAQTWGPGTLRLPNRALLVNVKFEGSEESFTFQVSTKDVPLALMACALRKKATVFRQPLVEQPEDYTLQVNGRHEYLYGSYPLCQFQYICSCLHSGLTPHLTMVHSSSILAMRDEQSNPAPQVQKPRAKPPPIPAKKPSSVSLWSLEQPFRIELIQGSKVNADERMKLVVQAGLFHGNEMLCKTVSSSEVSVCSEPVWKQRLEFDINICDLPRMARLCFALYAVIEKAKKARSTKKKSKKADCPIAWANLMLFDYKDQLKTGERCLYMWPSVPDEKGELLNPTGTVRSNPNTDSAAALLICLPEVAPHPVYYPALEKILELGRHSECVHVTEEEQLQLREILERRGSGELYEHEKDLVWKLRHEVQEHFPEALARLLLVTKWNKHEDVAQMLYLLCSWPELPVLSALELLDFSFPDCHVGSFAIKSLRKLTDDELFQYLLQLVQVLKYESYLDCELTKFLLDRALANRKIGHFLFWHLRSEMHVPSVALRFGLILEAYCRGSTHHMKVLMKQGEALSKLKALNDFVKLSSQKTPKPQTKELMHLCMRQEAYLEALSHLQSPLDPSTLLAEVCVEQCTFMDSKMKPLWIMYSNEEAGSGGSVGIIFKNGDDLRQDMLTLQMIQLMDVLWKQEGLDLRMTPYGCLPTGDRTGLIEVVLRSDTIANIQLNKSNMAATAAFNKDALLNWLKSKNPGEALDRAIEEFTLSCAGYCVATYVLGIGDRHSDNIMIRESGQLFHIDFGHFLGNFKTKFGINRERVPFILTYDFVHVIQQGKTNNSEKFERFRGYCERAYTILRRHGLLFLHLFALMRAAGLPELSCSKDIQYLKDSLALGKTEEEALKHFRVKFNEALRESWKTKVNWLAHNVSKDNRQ
T4 sequence (P42336 with tags, fused parts or gaps limits assumed): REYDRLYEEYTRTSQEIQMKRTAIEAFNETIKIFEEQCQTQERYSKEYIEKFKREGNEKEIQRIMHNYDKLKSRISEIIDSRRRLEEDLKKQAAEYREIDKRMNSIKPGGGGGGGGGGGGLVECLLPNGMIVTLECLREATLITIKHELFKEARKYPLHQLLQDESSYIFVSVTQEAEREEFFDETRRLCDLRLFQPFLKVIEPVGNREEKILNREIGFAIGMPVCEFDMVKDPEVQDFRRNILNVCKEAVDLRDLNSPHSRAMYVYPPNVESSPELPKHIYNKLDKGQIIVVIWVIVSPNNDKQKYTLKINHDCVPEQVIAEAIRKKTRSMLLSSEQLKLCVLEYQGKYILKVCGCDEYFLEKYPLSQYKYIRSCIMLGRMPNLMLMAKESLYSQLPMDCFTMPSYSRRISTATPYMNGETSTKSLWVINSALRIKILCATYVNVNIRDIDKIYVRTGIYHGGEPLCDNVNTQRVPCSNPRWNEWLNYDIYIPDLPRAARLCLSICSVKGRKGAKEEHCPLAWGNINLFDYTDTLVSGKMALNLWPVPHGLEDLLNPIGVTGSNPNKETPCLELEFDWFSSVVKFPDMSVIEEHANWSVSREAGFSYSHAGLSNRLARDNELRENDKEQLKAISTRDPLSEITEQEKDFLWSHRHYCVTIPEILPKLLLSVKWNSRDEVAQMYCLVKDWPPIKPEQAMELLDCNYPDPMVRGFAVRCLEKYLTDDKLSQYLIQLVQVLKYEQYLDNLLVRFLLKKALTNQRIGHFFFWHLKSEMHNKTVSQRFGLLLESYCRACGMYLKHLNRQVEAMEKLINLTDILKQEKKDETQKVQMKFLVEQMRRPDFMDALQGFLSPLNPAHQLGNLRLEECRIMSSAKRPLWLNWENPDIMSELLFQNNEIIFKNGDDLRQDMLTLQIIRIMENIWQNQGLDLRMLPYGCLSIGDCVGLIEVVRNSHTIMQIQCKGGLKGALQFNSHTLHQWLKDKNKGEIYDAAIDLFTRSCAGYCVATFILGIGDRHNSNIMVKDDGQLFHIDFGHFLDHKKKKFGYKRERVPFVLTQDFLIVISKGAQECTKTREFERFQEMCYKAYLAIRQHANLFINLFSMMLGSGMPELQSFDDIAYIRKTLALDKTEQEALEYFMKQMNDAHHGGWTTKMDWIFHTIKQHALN

| Structure (SMILES) | IC50 [1] | IC50 [2] | IC50 [3] | IC50 [4] |
| --- | --- | --- | --- | --- |
| CCOc1ccc(-c2ccc3ncc4c(c3c2)n(-c2cn(C)nc2Cl)c(=O)n4C)cn1 [Example 3.8, 1-(3-Chloro-1-methyl-1H-pyrazol-4-yl)-8-(6-ethoxy-pyridin-3-yl)-3-methyl-1,3-dihydro-imidazo[4,5-c]quinolin-2-one] | 34 nM | 9 nM | 123 nM | 16 nM |
| Cc1nn(C)c(C)c1-n1c(=O)n(C)c2cnc3ccc(-c4cnc(N)c(C(F)(F)F)c4)cc3c21 [Example 25.3, 8-(6-Amino-5-trifluoromethyl-pyridin-3-yl)-3-methyl-1-(1,3,5-trimethyl-1H-pyrazol-4-yl)-1,3-dihydro-imidazo[4,5-c]quinolin-2-one] | 46 nM | 116 nM | 48 nM | 59 nM |
| Cc1nn(C)cc1-n1c(=O)n(C)c2cnc3ccc(-c4ccc(N5CCN(C)CC5)nc4)cc3c21 [Example 96, 1-(1,3-Dimethyl-1H-pyrazol-4-yl)-3-methyl-8-[6-(4-methyl-piperazin-1-yl)-pyridin-3-yl]-1,3-dihydro-imidazo[4,5-c]quinolin-2-one] | 199 nM | 87 nM | 544 nM | 47 nM |
| Cc1noc(C)c1-n1c(=O)n(C)c2cnc3ccc(-c4cnc(N)c(C(F)(F)F)c4)cc3c21 [Example 25.5, 8-(6-Amino-5-trifluoromethyl-pyridin-3-yl)-1-(3,5-dimethyl-isoxazol-4-yl)-3-methyl-1,3-dihydro-imidazo[4,5-c]quinolin-2-one] | 10 nM | 432 nM | 30 nM | 30 nM |
| Cc1nn(C)cc1-n1c(=O)n(C)c2cnc3ccc(-c4cccc(N(C)S(C)(=O)=O)c4)cc3c21 [Example 117, N-{3-[1-(1,3-Dimethyl-1H-pyrazol-4-yl)-3-methyl-2-oxo-2,3-dihydro-1H-imidazo[4,5-c]quinolin-8-yl]-phenyl}-N-methyl-methanesulfonamide] | 147 nM | 470 nM | 907 nM | 58 nM |
| Cc1nn(C)cc1-n1c(=O)n(C)c2cnc3ccc(-c4cnc5[nH]ccc5c4)cc3c21 [Example 36, 1-(1,3-dimethyl-1H-pyrazol-4-yl)-3-methyl-8-(1H-pyrrolo[2,3-b]pyridin-5-yl)-1,3-dihydro-imidazo[4,5-c]quinolin-2-one] | 24 nM | < 3 nM | 32 nM | 9 nM |
| CNc1ncc(-c2ccc3ncc4c(c3c2)n(-c2c(C)nn(C)c2C)c(=O)n4C)cn1 [Example 80.2] | 25 nM | 120 nM | 288 nM | 42 nM |
| CCNc1cc(-c2ccc3ncc4c(c3c2)n(-c2cn(C)nc2C)c(=O)n4C)cnc1C [Example 87.1, 1-(1,3-Dimethyl-1H-pyrazol-4-yl)-8-(5-ethylamino-6-methyl-pyridin-3-yl)-3-methyl-1,3-dihydro-imidazo[4,5-c]quinolin-2-one] | 10 nM | 3 nM | 21 nM | 14 nM |
| COc1ccc(-c2ccc3ncc4c(c3c2)n(-c2cn(CC(=O)N(C)C)nc2C)c(=O)n4C)cn1 [Example 102, 2-{4-[8-(6-Methoxy-pyridin-3-yl)-3-methyl-2-oxo-2,3-dihydro-imidazo[4,5-c]quinolin-1-yl]-3-methyl-pyrazol-1-yl}-N,N-dimethyl-acetamide] | 26 nM | 11 nM | 291 nM | 13 nM |
| CNc1ccc(-c2ccc3ncc4c(c3c2)n(-c2cn(C(C)C)nc2C)c(=O)n4C)cn1 [Example 118.1, 1-(1-isopropyl-3-methyl-1H-pyrazol-4-yl)-3-methyl-8-(6-methylamino-pyridin-3-yl)-1,3-dihydro-imidazo[4,5-c]quinolin-2-one] | 18 nM | 5 nM | 302 nM | 26 nM |

Second part, the compound after the results:

| IC50 [1] | IC50 [2] | IC50 [3] | IC50 [4] | Structure (SMILES) |
| --- | --- | --- | --- | --- |
| 10 nM | 479 nM | 281 nM | 92 nM | CNc1ncc(-c2ccc3ncc4c(c3c2)n(-c2c(C)noc2C)c(=O)n4C)cc1Cl [Example 146.6, 8-(5-Chloro-6-methylamino-pyridin-3-yl)-1-(3,5-dimethyl-isoxazol-4-yl)-3-methyl-1,3-dihydro-imidazo[4,5-c]quinolin-2-one] |
| < 3 nM | < 3 nM | 17 nM | 14 nM | CNc1cc(-c2ccc3ncc4c(c3c2)n(-c2cn(C)nc2Cl)c(=O)n4C)cnc1COC [Example 160.1, 1-(3-Chloro-1-methyl-1H-pyrazol-4-yl)-8-(6-methoxymethyl-5-methylamino-pyridin-3-yl)-3-methyl-1,3-dihydro-imidazo[4,5-c]quinolin-2-one] |
| 473 nM | 174 nM | 103 nM | 29 nM | Cc1nn(C)cc1-n1c(=O)n(C)c2cnc3ccc(-c4cnc(CO)c(Cl)c4)cc3c21 [Example 238, 8-(5-Chloro-6-hydroxymethyl-pyridin-3-yl)-1-(1,3-dimethyl-1H-pyrazol-4-yl)-3-methyl-1,3-dihydro-imidazo[4,5-c]quinolin-2-one] |
| 8 nM | 11 nM | 114 nM | 25 nM | CCNc1ncc(-c2ccc3ncc4c(c3c2)n(-c2cn(C)nc2C)c(=O)n4C)cc1Cl [Example 147, 8-(5-Chloro-6-ethylamino-pyridin-3-yl)-1-(1,3-dimethyl-1H-pyrazol-4-yl)-3-methyl-1,3-dihydro-imidazo[4,5-c]quinolin-2-one] |
| 5 nM | 45 nM | 77 nM | 29 nM | CCOCc1ncc(-c2ccc3ncc4c(c3c2)n(-c2cn(C)nc2Cl)c(=O)n4C)cc1OC [Example 196.1, 1-(3-Chloro-1-methyl-1H-pyrazol-4-yl)-8-(6-ethoxymethyl-5-methoxy-pyridin-3-yl)-3-methyl-1,3-dihydro-imidazo[4,5-c]quinolin-2-one] |
| 12 nM | 3 nM | 18 nM | 14 nM | Cc1nn(C)cc1-n1c(=O)n(C)c2cnc3ccc(-c4cncc(NC(C)C)c4)cc3c21 [Example 177.1, 1-(1,3-Dimethyl-1H-pyrazol-4-yl)-8-(5-isopropylamino-pyridin-3-yl)-3-methyl-1,3-dihydro-imidazo[4,5-c]quinolin-2-one] |
| 11 nM | 70 nM | 112 nM | 72 nM | CNc1cc(-c2ccc3ncc4c(c3c2)n(-c2c(C)nn(C)c2C)c(=O)n4C)cnc1CO [Example 158.4, 8-(6-Hydroxymethyl-5-methylamino-pyridin-3-yl)-3-methyl-1-(1,3,5-trimethyl-1H-pyrazol-4-yl)-1,3-dihydro-imidazo[4,5-c]quinolin-2-one] |
| 21 nM | 169 nM | 71 nM | 33 nM | COCCNC(=O)c1cc(-c2ccc3ncc4c(c3c2)n(-c2cn(C)nc2C)c(=O)n4C)cnc1N [Example 226, 2-Amino-5-[1-(1,3-dimethyl-1H-pyrazol-4-yl)-3-methyl-2-oxo-2,3-dihydro-1H-imidazo[4,5-c]quinolin-8-yl]-N-(2-methoxy-ethyl)-nicotinamide] |
| 24 nM | 10 nM | 13 nM | 12 nM | Cc1nn(C)cc1-n1c(=O)n(C)c2cnc3ccc(-c4cncc(OCCF)c4)cc3c21 [Example 181, 1-(1,3-Dimethyl-1H-pyrazol-4-yl)-8-[5-(2-fluoro-ethoxy)-pyridin-3-yl]-3-methyl-1,3-dihydro-imidazo[4,5-c]quinolin-2-one] |
| 20 nM | 5 nM | 42 nM | 41 nM | CCn1cc(-n2c(=O)n(C)c3cnc4ccc(-c5cncc(NC)c5)cc4c32)c(C)n1 [Example 180.1, 1-(1-Ethyl-3-methyl-1H-pyrazol-4-yl)-3-methyl-8-(5-methylamino-pyridin-3-yl)-1,3-dihydro-imidazo[4,5-c]quinolin-2-one] |
| 14 nM | 5 nM | 22 nM | 14 nM | CCNc1cncc(-c2ccc3ncc4c(c3c2)n(-c2cn(C)nc2C)c(=O)n4C)c1 [Example 122, 1-(1,3-Dimethyl-1H-pyrazol-4-yl)-8-(5-ethylamino-pyridin-3-yl)-3-methyl-1,3-dihydro-imidazo[4,5-c]quinolin-2-one] |
